Positions of bridges follow the written chain, without caps; N, C: chain ends. Residues, ends and D or L forms follow the SMILES beside them.

Holding throughout (assay type): biochemical
The target in one assay is T1, HTRA1^FL (Homo sapiens, UniProt Q92743).
T1 construct: Human full-length HTRA1 (HTRA1^FL, Q23-P480); made in house; host or cells: Trichoplusia ni cells
As to the kind of experiment: HTRA1^FL enzyme inhibition assay with synthetic substrate H2-OPT. The essentials:
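CKP or 7mer-ABP preincubated with protease at 37 °C (CKP 60 min; 7mer-ABP 15 min, 2 µM selectivity), then 5 µM Mca-IRRVSYSFK(Dnp)K added in TNC buffer, 0.25% DMSO. Cleavage read kinetically at 37 °C (ex 328/em 393 nm); initial rates as % DMSO control, IC50 by 4PL fit.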

For assay [1], the target named is T2, HTRA1^FL, HTRA1^PD, HTRA1^PD/PDZ (Homo sapiens, UniProt Q92743).
T2 construct: made in house; host or cells: Trichoplusia ni cells (FL); E. coli (PD, PD/PDZ)
As to the kind of experiment: Fluorescence-quenched casein-BODIPY assay, HTRA1 constructs. The note with it: 2 µM CKP (0.5 mM 7mer-ABP). The method, then:
The fluorescence-quenched casein-BODIPY® assay (EnzCheck®, Thermo Fisher Scientific) was carried out in TNC buffer (50 mM Tris pH 8.0, 200 mM NaCl, 0.25% CHAPS) at 37 °C in 96-well black optical bottom plates (Nalge Nunc Int., Rochester, NY). Enzymes were incubated with CKPs or DMSO control for 15 min prior to addition of casein substrate. The reactant concentrations were: 30 nM HTRA1^FL, 30 nM HTRA1^PD/PDZ, 30 nM HTRA1^PD, 30 nM HTRA2^PD/PDZ, 30 nM HTRA3^FL, 100 nM HTRA3^PD/PDZ, 30 nM HTRA4^FL, 300 nM HTRA4^PD/PDZ, 2 µM CKP, 5 µg/ml casein substrate and 0.25% DMSO. For selectivity assays, 0.5 mM 7mer-ABP was used as positive control. The kinetics of substrate cleavage were measured at 37 °C on a SpectraMax M5 microplate reader (Molecular Devices) with excitation of 485 nm and emission of 530 nm for 30 min (HTRA1 and HTRA2) or 5 h (HTRA3 and HTRA4). The determined initial rates of cleavage were expressed as percent of control (DMSO control) after subtracting the baseline rates (without enzyme).

For assay [2], the target named is T3, HTRA4^PD/PDZ, HTRA4^FL (Homo sapiens, UniProt P83105).
T3 construct: purchased Abcam (FL form); the PD/PDZ form was made in house in E. coli ab134444
T3 sequence (P83105 32-476): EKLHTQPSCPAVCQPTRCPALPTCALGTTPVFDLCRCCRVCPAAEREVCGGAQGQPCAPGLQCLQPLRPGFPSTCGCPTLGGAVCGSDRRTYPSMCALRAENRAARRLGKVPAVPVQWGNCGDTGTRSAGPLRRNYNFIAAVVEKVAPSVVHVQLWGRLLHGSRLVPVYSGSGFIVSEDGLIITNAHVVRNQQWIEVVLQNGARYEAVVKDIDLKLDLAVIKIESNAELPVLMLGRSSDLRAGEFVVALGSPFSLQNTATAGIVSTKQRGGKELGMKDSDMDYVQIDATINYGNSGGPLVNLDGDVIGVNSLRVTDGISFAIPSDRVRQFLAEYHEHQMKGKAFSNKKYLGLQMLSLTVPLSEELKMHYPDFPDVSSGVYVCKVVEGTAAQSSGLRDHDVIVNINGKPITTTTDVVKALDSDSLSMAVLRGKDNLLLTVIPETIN
As to the kind of experiment: H2-OPT selectivity assay, HTRA4. The note with it: 6 nM HTRA4^FL, 2 µM CKP (0.5 mM 7mer-ABP). The method, then: (§1) Assays with the fluorescence-quenched synthetic substrate Mca-IRRVSYSFK(Dnp)K (H2-OPT)[38],[60] were carried out essentially as described. CKP stock solutions in DMSO were diluted in TNC buffer (dilution series for IC50 determinations, or final concentration of 2 µM for selectivity assay or as indicated for HTRA1/4 mutants) and incubated with enzymes in 96-well black optical bottom plates for 60 min at 37 °C. For selectivity experiments we used the 7mer-ABP as inhibitor, which was incubated with the proteases for 15 min at 37 °C. A 10 mM stock solution of H2-OPT in DMSO was diluted with water, prewarmed at 37 °C and then added to the CKP-enzyme mixtures. The final concentrations in the reaction mixtures were: 1 nM HTRA1^FL, 3 nM HTRA1^PD/PDZ, 1 nM HTRA1^PD, 1 nM HTRA2^PD/PDZ, 3 nM HTRA3^FL, 60 nM HTRA3^PD/PDZ, 6 nM HTRA4^FL, 1 µM HTRA4^PD/PDZ, 1 nM mouse HTRA1^PD, 25 nM HTRA1^PD-A202Y, 1 µM HTRA4^PD/PDZ-Y200A, 0.5 mM 7mer-ABP, 5 µM H2-OPT, and 0.25% DMSO. The kinetics of substrate cleavage was measured at 37 °C on a SpectraMax M5 microplate reader with excitation of 328 nm and emission of 393 nm. The determined initial rates of cleavage were expressed as percent of control (DMSO control) after subtracting the baseline rates (without enzyme). IC50 values were determined by Sigmoidal 4PL modeling of multiple data points from serial dilutions of CKPs using Prism 9 software (GraphPad). For selectivity assays with HTRA1-4^PD/PDZ constructs, the specific activities of the enzymes and enzyme:CKP inhibitor ratios were as follows: HTRA1^PD/PDZ, 12560 mRFU/min/nM – 1:667; HTRA2^PD/PDZ, 32300 mRFU/min/nM – 1:2000; HTRA3^PD/PDZ, 962 mRFU/min/nM – 1:33; HTRA4^PD/PDZ, 18 mRFU/min/nM – 1:2.

In assay [3] the target is T4, HTRA4^PD/PDZ, HTRA4^FL (Homo sapiens, UniProt P83105).
T4 construct: purchased Abcam (FL form); the PD/PDZ form was made in house in E. coli ab134444
T4 sequence (P83105 153-476): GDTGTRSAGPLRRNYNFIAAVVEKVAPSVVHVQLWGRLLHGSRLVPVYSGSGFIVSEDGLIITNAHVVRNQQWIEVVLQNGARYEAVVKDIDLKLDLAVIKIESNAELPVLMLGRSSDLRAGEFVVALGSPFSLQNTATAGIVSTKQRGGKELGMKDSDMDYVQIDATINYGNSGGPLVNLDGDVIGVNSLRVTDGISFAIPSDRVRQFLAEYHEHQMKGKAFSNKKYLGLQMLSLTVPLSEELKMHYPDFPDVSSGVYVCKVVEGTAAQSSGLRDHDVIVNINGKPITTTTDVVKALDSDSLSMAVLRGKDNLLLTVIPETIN
As to the kind of experiment: H2-OPT selectivity assay, HTRA4. To be noted: 1 µM HTRA4^PD/PDZ, 2 µM CKP (0.5 mM 7mer-ABP), 5 µM H2-OPT. As to the method:
as §1

T1 sequence (Q92743 23-480): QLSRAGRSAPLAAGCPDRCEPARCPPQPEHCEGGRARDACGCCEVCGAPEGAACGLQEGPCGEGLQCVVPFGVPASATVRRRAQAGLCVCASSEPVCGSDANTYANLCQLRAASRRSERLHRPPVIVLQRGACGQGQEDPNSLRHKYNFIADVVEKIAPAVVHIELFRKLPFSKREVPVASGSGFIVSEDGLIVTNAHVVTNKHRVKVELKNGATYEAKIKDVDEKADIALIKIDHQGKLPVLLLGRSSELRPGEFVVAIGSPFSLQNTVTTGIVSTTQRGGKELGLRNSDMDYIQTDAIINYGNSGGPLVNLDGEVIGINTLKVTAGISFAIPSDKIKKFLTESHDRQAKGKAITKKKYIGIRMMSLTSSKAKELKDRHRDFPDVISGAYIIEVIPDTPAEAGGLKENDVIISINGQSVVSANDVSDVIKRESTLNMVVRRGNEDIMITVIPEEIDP

DPMFKLV-phosphonate [7mer-ABP]: at HTRA1^FL (1 nM HTRA1^FL, 2 µM CKP (0.5 mM 7mer-ABP)), the “Inhibition of HTRA1^FL at single concentration, H2-OPT (% of control)” value is recorded as “significantly inhibited”. In assay [1] (30 nM HTRA1^FL, 5 µg/ml casein, 37 °C), the “Inhibition of HTRA1^FL, casein-BODIPY cleavage (% of control)” value is on record as “significantly inhibited”. In addition, the “Inhibition of HTRA1^PD/PDZ, casein-BODIPY cleavage (% of control)” value in assay [1] (30 nM HTRA1^PD/PDZ) was “significantly inhibited”. In addition, the “Inhibition of HTRA4^FL, H2-OPT (% of control)” value at HTRA4^PD/PDZ, HTRA4^FL [2] is “significantly inhibited”. The “Inhibition of HTRA4^PD/PDZ, H2-OPT (% of control)” value on HTRA4^PD/PDZ, HTRA4^FL [3] is given as “significantly inhibited”.
`CC[C@H](C)[C@H](NC(=O)[C@@H]1CCCN1C(=O)[C@H](CC(=O)O)NC(=O)[C@H](C)NC(=O)[C@@H](N)Cc1c[nH]cn1)C(=O)N[C@H]1CSSC[C@@H]2NC(=O)[C@H](Cc3ccccc3)NC(=O)[C@H](Cc3c[nH]c4ccccc34)NC(=O)[C@H](C)NC(=O)CNC(=O)[C@H](CO)NC(=O)[C@@H]3CSSC[C@@H](C(=O)NCC(=O)N4CCC[C@H]4C(=O)N[C@@H](Cc4ccc(O)cc4)C(=O)N[C@H](C(=O)NCC(N)=O)C(C)C)NC(=O)[C@H](CO)NC(=O)[C@H](Cc4c[nH]c5ccccc45)NC(=O)[C@H]([C@@H](C)O)NC(=O)[C@H](C)NC(=O)[C@H](Cc4ccc(O)cc4)NC(=O)[C@H](Cc4ccc(O)cc4)NC(=O)[C@H](CSSC[C@H](NC(=O)[C@@H]4CCCN4C(=O)[C@H](CCCCN)NC(=O)[C@H](CC(N)=O)NC1=O)C(=O)N[C@@H](CCCCN)C(=O)N[C@@H]([C@@H](C)O)C(=O)N[C@@H](Cc1c[nH]cn1)C(=O)N[C@@H](CC(=O)O)C(=O)N[C@@H](CC(=O)O)C(=O)N3)NC(=O)[C@H](C)NC(=O)[C@H](CCC(N)=O)NC2=O` [3B3] (H-HADPICNKPCKTHDDCSGAWFCQACYYATWSCGPYVG-NH2; disulfide 6-22, 10-25, 16-32): inhibition against HTRA1^FL was half-maximal at 53 nM (IC50).
